Values of other authors as cited in US20150025027A1 (PHARTRIALS PERQUISAS FARMACÊUTICAS LTDA, priority 2012, published 2015).
Converted amounts (≈) assume the structure as drawn.

Legend:
[1] = not given; remark: listed apart in the source
[2] = not given; remark: listed apart in the source
[3] = high-risk, obese population; vs. 10% in comparison group
[4] = not given; remark: listed apart in the source

Row | Compound | log P | solubility in water [1] [mg/mL] | half-life ([2]; in vivo) [h] | cardiovascular outcomes (AMI, CVA, cardiorespiratory failure or death) in patients receiving the drug [3] [%] | time to peak plasma concentration ([2]; after oral administration) [h] | time to plasma concentrations in the state of equilibrium ([2]; days of treatment) [days] | share of the dose administered per metabolite ([2]; each of six metabolites) [%] | dose metabolized ([2]; forming six metabolites) [%] | dose administered eliminated through the urine ([2]; in vivo) [%] | oral bioavailability ([2]; oral) [%] | weight loss in humans [4]
1 | CC(NC(C)(C)C)C(=O)c1cccc(Cl)c1 (stereo not shown) [Bupropion, 1-(3-chlorophenyl)-2-{(1,1-dimethyl)-amino]-1-propanone] | 3.6 | 312 (≈ 1300 mM) | 24 |  |  |  |  |  |  |  | 
2 | CC(C)CC(N(C)C)C1(c2ccc(Cl)cc2)CCC1 (stereo not shown) [sibutramine] |  |  |  | 11.4 |  |  |  |  |  |  | 
3 | CC1(C)OC2CO[C@@]3(COS(N)(=O)=O)OC(C)(C)O[C@H]3C2O1 (stereo partly shown) [Topiramate] | −0.7 | 9.8 (≈ 28.9 mM) |  |  | 2 | 4 | ≤ 5 | 30 | 70 | 80 | effective in weight loss
